These results are taken from patent publication EP0360750A2, “Novel herbicide tolerant plants” (CIBA-GEIGY AG, priority 1988, dated 1990).

One assay concerns AHAS. Put plainly: AHAS enzyme assay: AHAS activity remaining in the presence of herbicides or amino acids. Type of assay: biochemical, Nicotiana tabacum. The note with it: for % AHAS activity remaining with Ile / % AHAS activity remaining with Leu / % AHAS activity remaining with Val: 10mM. The protocol:
The weight of the material to be assayed is determined either by weighing the pellet obtained by refrigerated centrifugation of a cell suspension or by weighing callus, leaf or root tissue placed into liquid nitrogen and macerated to a fine powder. One volume (in ml) of cold homogenization buffer equal to the weight (in g) of the cell suspension pellet or equal to two times the weight (in g) of tissue is added and the mixture is passed through a French pressure cell at 15,000 psi or is ground with sand in a mortar and pestle. All subsequent steps are carried out keeping the material cold (about 4°C). The cells are disrupted at 16,000 psi, collecting the cell exudate into a container on ice. The exudate is centrifuged 5 min at 10,000 rpm to clear the cell debris. The volume of the supernate is measured and enzyme grade ammonium sulfate added to 25 % saturation (144 mg (NH₄)₂SO₄ per ml supernate). The mixture is stirred on ice for 15 min, then centrifuged for 5 min at 10,000 rpm. The pellet is discarded and the supernate adjusted to 50 % saturation with ammonium sulfate (158 mg (NH₄)₂SO₄ per ml supernate). After stirring on ice for 15 min, the pellet is collected by centrifugation at 10,000 rpm for 5 min. The obtained pellet is dissolved in 1-2 ml of column buffer. The extract is desalted by application to a Sephadex G50 column equilibrated with column buffer. The sample is eluted with column buffer, collecting approximately 2 ml of sample for each ml of sample applied to the column.
Homogenization buffer and column buffer are chosen depending on the source of the AHAS to be assayed: Tobacco homogenization buffer consists of: 50 mM NaH₂PO₄ buffer pH 7.0, 0.5 mM EDTA pH 7.0, 0.5 mM MgCl₂, 1 mM sodium pyruvate pH 7.0, 10 µM FAD, 1 mM PMSF, 10 % glycerol. Maize homogenization buffer consists of: 50 mM Tris pH 7.5, 1 mM EDTA pH 7.5, 5 mM MgCl₂, 20 mM sodium pyruvate pH 7.0, 10 µM FAD, 1 mM PMSF, 1 mM DTT, 1 mM TPP, 10 % glycerol. Tobacco column buffer consists of: 50 mM NaH₂PO₄ buffer pH 7.0, 0.1 mM EDTA, 0.5 mM MgCl₂, 10 µM FAD, 1 mM PMSF, 10 % glycerol. Maize column buffer consists of: 50 mM Tris pH 7.5, 5 mM MgCl₂, 10 µM FAD, 0.1 mM EDTA, 1 mM PMSF, 1 mM DTT, 10 % glycerol.
5-50 µl of an extract prepared according to EXAMPLE 30 are dissolved in a total volume of 0.5 ml of reaction mixture (see below). The mixture is incubated for 30 min at 37°C. The reaction is stopped by the addition of 50 µl of 6 N H₂SO₄. The mixture is incubated for 15 min at 60°C, then treated with 625 µl of a-naphthol reagent (500 µl 5 % a-naphthol in 2.5 M NaOH and 125 µl 25 mg/ml creatine) and incubated another 15 min at 60°C. If a precipitate has formed, this is spun out, and the absorbance measured at 520 nm. The amount of acetoin formed is calculated from a standard curve developed using 0.4 µg to 10 µg acetoin. The specific activity is expressed as pKat acetoin per mg protein.
1-20 µl of a sample are placed in a ELISA plate well with a total volume of 0.15 ml of reaction mixture. The mixture is reacted for 30 min at 37°C. The reaction is stopped by the addition of 50 µl of 2.4 M H₂SO₄ containing 1 % creatine. The mixture is incubated for 30 min at 60°C. Any precipitate present is separated by centri fugation. 150 µl of the assay mixture are transferred to a new ELISA plate, treated with 100 µl 10 % a-naphthol in 5M NaOH and incubated another 20 min at 60°C. The absorbance is measured at 520 nm, and the specific activity expressed as under a).
Ten point inhibition curves are generated by determining AHAS activity in the presence of sulfonylurea, imidazolinone and triazolopyrimidine herbicides. The sulfonylurea and triazolopyrimidine herbicides are included in the reaction mixture to give a range of final concentrations of the inhibitors between 1 nM and 10,000 nM. The imidazolinone herbicides are included in the concentration ranges of 10 nM to 100,000 nM. […]

For assay [1], the system named is transgenic tobacco plants. Put plainly: Leaf disc herbicide tolerance test of transgenic tobacco plants. The assay is classed as cell-based, cv. Havana 38. The note with it: after 40 days. The protocol:
After 3-6 weeks of growth in light, the cultured tissue pieces are evaluated for their ability to form green shoots in the presence of the inhibitor. In analogy, sections from stems, petioles, roots, cotyledons, and hypocotyls are used. The herbicide tolerance of the transgenic plants obtained according to EXAMPLE 23 and 24 using CGA1402 are essentially determined as described in EXAMPLE 11a. Leaf discs are cut from different transgenic plants, weighed and then placed, lower side up, onto solidified MSBN medium containing 0, 10, 30, 100 and 300 ppb of SU872. The culture plates are incubated in the light at 25-28°C. […] Discs are inspected visually and evaluated for shoot and/or callus formation.

For the compound `COCCOc1ccccc1S(=O)(=O)NC(=O)Nc1nc(OC)nc(OC)n1` [SU464, 2-(2-methoxyethoxy)-N-[(4,6-dimethoxy-1,3,5-triazin-2-yl)-aminocarbonyl]benzenesulfonamide], the “% AHAS activity remaining with SU464” value with AHAS (0.21µM, strain S3 (Table 2)) stood at 44%; with AHAS (0.21µM, strain Su 6 (Table 2)), 36%; in the assay on AHAS (0.21µM, strain Su 8 (Table 2)), 38%; in the assay on AHAS (0.21µM, strain Su 10 (Table 2)), 37%; with AHAS (0.21µM, strain Su 20 (Table 2)) it was 32%; with AHAS (0.21µM, strain Su 25 (Table 2)), 32%. Moreover, the “% AHAS activity remaining with SU464” value with AHAS (0.21µM, strain Su 27 (Table 2)) stood at 39%; in the assay on AHAS (0.21µM, strain Su 41 (Table 2)), 32%; in the assay on AHAS (10.6µM, strain S3 (Table 2)), 24%; in the assay on AHAS (10.6µM, strain Su 6 (Table 2)) it was 15%; in the assay with AHAS (10.6µM, strain Su 8 (Table 2)), 16%; with AHAS (10.6µM, strain Su 10 (Table 2)) it was 20%. For the same compound, the “% AHAS activity remaining with SU464” value in the assay on AHAS (10.6µM, strain Su 20 (Table 2)) is 21%; in the assay on AHAS (10.6µM, strain Su 25 (Table 2)), 18%; in the assay on AHAS (10.6µM, strain Su 27 (Table 2)), 19%; in the assay with AHAS (10.6µM, strain Su 41 (Table 2)) it was 21%.
Consider `CC[C@H](C)[C@H](N)C(=O)O` [Ile, isoleucine], for which the “% AHAS activity remaining with Ile” value in the assay with AHAS (strain S3 (Table 2)) turned out to be 80%; with AHAS (strain Su 6 (Table 2)) it was 66%; in the assay on AHAS (strain Su 8 (Table 2)) it was 95%; with AHAS (strain Su 10 (Table 2)), 102%; in the assay with AHAS (strain Su 20 (Table 2)), 58%; in the assay with AHAS (strain Su 25 (Table 2)), 100%. The “% AHAS activity remaining with Ile” value amounted to 92% in the assay on AHAS (strain Su 27 (Table 2)) and 97% in the assay on AHAS (strain Su 41 (Table 2)).
For `COC(=O)c1ccccc1S(=O)(=O)NC(=O)Nc1nc(OC(F)F)cc(OC(F)F)n1` [SU872, 2-methoxycarbonyl-N-[(4,6-bis{difluoromethoxy}-pyrimidin-2-yl)-aminocarbonyl]benzenesulfonamide], the “% AHAS activity remaining with SU872” value is 17% with AHAS (0.21µM, strain S3 (Table 2)); 27% in the assay on AHAS (0.21µM, strain Su 6 (Table 2)); 32% with AHAS (0.21µM, strain Su 8 (Table 2)); 39% in the assay with AHAS (0.21µM, strain Su 10 (Table 2)); 18% in the assay with AHAS (0.21µM, strain Su 20 (Table 2)); 20% in the assay with AHAS (0.21µM, strain Su 25 (Table 2)). Further, the “% AHAS activity remaining with SU872” value in the assay on AHAS (0.21µM, strain Su 27 (Table 2)) is listed as 36%; in the assay on AHAS (0.21µM, strain Su 41 (Table 2)) it was 15%; in the assay on AHAS (10.6µM, strain S3 (Table 2)), 14%; in the assay on AHAS (10.6µM, strain Su 6 (Table 2)), 12%; in the assay on AHAS (10.6µM, strain Su 8 (Table 2)) it was 12%; with AHAS (10.6µM, strain Su 10 (Table 2)), 15%. Also, the “% AHAS activity remaining with SU872” value with AHAS (10.6µM, strain Su 20 (Table 2)) is on record as 17%; in the assay on AHAS (10.6µM, strain Su 25 (Table 2)), 18%; in the assay with AHAS (10.6µM, strain Su 27 (Table 2)), 20%; in the assay on AHAS (10.6µM, strain Su 41 (Table 2)) it was 12%. Moreover, the “Mean mg fresh weight per disc ± standard deviation (n=7)” value in assay [1] (10 ppb SU872, plant A3 (transformed with CGA1402, 35S/wild-type Arabidopsis AHAS)) was determined as 2151 ± 995 mg; in assay [1] (10 ppb SU872, plant A4 (transformed with CGA1402, 35S/wild-type Arabidopsis AHAS)), 2847 ± 548 mg; in assay [1] (10 ppb SU872, plant D2 (genomic clone of AHAS from chlorsulfuron tolerant mutant GH-50), discs bleached, not enlarged, no callus), 70 ± 14 mg; in assay [1] (10 ppb SU872, plant type E (wild-type tobacco, cv. Havana 38), discs bleached, not enlarged, no callus) it was 87 ± 19 mg; in assay [1] (30 ppb SU872, plant A3) it was 180 ± 98 mg; in assay [1] (30 ppb SU872, plant A4), 333 ± 174 mg. The “Mean mg fresh weight per disc ± standard deviation (n=7)” value was 33 ± 29 mg in assay [1] (100 ppb SU872, plant A3) and 19 ± 15 mg in assay [1] (100 ppb SU872, plant A4).
As for `CC(C)C[C@H](N)C(=O)O` [Leu, leucine], the “% AHAS activity remaining with Leu” value worked out at 38% in the assay on AHAS (strain S3 (Table 2)); 58% with AHAS (strain Su 6 (Table 2)); 61% in the assay with AHAS (strain Su 8 (Table 2)); 62% in the assay with AHAS (strain Su 10 (Table 2)); 53% with AHAS (strain Su 20 (Table 2)); 84% in the assay on AHAS (strain Su 25 (Table 2)). Moreover, the “% AHAS activity remaining with Leu” value is on record as 81% in the assay with AHAS (strain Su 27 (Table 2)) and 71% in the assay with AHAS (strain Su 41 (Table 2)).
With `CC(C)[C@H](N)C(=O)O` [Val, valine], the “% AHAS activity remaining with Val” value in the assay with AHAS (strain S3 (Table 2)) was 69%; in the assay with AHAS (strain Su 6 (Table 2)), 82%; in the assay with AHAS (strain Su 8 (Table 2)) it was 81%; in the assay on AHAS (strain Su 10 (Table 2)), 48%; in the assay with AHAS (strain Su 20 (Table 2)) it was 75%; with AHAS (strain Su 25 (Table 2)), 86%. Also, the “% AHAS activity remaining with Val” value with AHAS (strain Su 27 (Table 2)) was determined as 91%; in the assay on AHAS (strain Su 41 (Table 2)), 83%.
